Source: patent EP0978281B1, “EYEDROPS CONTAINING A LORATIDINE METABOLITE” (Schering-Plough Kabushiki Kaisha, priority 1997, dated 1998)

Tested on: IgE-immunized Rat Peritoneal Mast Cells
Experiment: cells
Settings: Mast cell, read-out: % inhibition of Histamine Release

CCOC(=O)N1CCC(=C2c3ccc(Cl)cc3CCc3cccnc32)CC1 [Loratadine, ethyl 4-(8-chloro-5,6-dihydro-11H-benzo[5,6]cyclohepta[1,2-b]pyridin-11-ylidene)-1-piperidinecarboxylate]
inhibition at 0.3 µM: 19.8 ± 5.77%
inhibition at 1 µM: 27.1 ± 4.72%
inhibition at 3 µM: 45.8 ± 9.26%
inhibition at 10 µM: 73.3 ± 16.8%
